The text below walks through data of paper PMC8282704 (Clinical cancer research : an official journal of the …, 2021).

Data set [1] has as its system patients with HER2-negative metastatic breast cancer. Put plainly: Treatment-related adverse events. It counts as in vivo, human. The note with it: 11/43; N=1 at 250mg, N=10 at 350mg.
The test system is the same in data set [2]. It counts as in vivo.
Data set [3] can be described thus: Plasma pharmacokinetics, phase I, cycle 1. It counts as in vivo, human. The settings on record: 13 patients, with nab-paclitaxel.
Data set [4] has as its system PI3Kα isoform (both wild-type and mutated p110α). The settings on record: cited from earlier work.
Data set [5] concerns other class I isoforms β, δ, and γ. The note with it: cited from earlier work.
For data set [6], the system named is hormone receptor-positive metastatic breast cancer. The settings on record: cited from earlier work.
Data set [7] has as its system PIK3CA/AKT1/PTEN-altered metastatic TNBC. The note with it: cited from earlier work.

In the case of `Cc1nc(NC(=O)N2CCC[C@H]2C(N)=O)sc1-c1ccnc(C(C)(C)C(F)(F)F)c1` [alpelisib], the “Alpelisib dose reduction required, patients” value in data set [1] was determined as 26%. Further, the MTD of alpelisib entry in data set [2] (in combination with nab-paclitaxel 100mg/m^2 D1,8,15) is recorded as “not reached”. The RP2D of alpelisib in data set [2] (orally daily, in combination with nab-paclitaxel 100mg/m^2 D1,8,15 every 28 days) turned out to be 350 mg. The “Tmax, Cmax, and AUC (0–8 hrs) of alpelisib” value in data set [3] is listed as “consistent with previous published reports”. In addition, the “inhibition of PI3Kα isoform” value in data set [4] is “selectively inhibits PI3Kα isoform”. For the same compound, in data set [5], the “activity against the other class I isoforms β, δ, and γ” value was “significantly less active”.

As for `NC1(C(=O)N[C@@H](CCO)c2ccc(Cl)cc2)CCN(c2ncnc3[nH]ccc23)CC1` [capivasertib], in data set [6], the “PFS with addition to fulvestrant” value is “improvement in PFS”.

With `CC(C)NC[C@@H](C(=O)N1CCN(c2ncnc3c2[C@H](C)C[C@H]3O)CC1)c1ccc(Cl)cc1` [ipatasertib], the “PFS with addition to first-line paclitaxel” value in data set [7] was “failed to show improvement in PFS”.
